From PubChem BioAssay AID328 (DTP/NCI, 2004)
Several values for one entry are separate records, joined by “and”; a condition that tells them apart may be missing. Equal values may be shown once. Inconclusive results and toxic doses are left out.

System: BDF1 mice, P388 leukemia ip, median survival T/C
Experiment: NCI In Vivo Anticancer Drug Screen. Data for tumor model P388 Leukemia (intraperitoneal) in B6D2F1 (BDF1) mice
Conditions: endpoint: median survival time, higher = longer survival
How it was run: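 Compound-treated tumour-bearing mice were compared with vehicle-treated controls. Survival was recorded, and the value is the treated-group measurement divided by the control-group measurement (T/C).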

[1] = dose: 25.0 mg/kg/injection, schedule: Q04DX003 (ip), vehicle: Klucel (hydroxypropylcellulose) (HPC)
[2] = dose: 3.12 mg/kg/injection, schedule: Q01DX009 (ip), vehicle: Klucel (hydroxypropylcellulose) (HPC)
[3] = dose: 100.0 mg/kg/injection, schedule: Q04DX003 (ip), vehicle: saline with Tween-80
[4] = dose: 200.0 mg/kg/injection, schedule: Q04DX003 (ip), vehicle: saline with Tween-80
[5] = dose: 400.0 mg/kg/injection, schedule: Q04DX003 (ip), vehicle: saline with Tween-80
[6] = dose: 100.0 mg/kg/injection, schedule: Q01DX009 (ip), vehicle: saline with Tween-80
[7] = dose: 200.0 mg/kg/injection, schedule: Q01DX009 (ip), vehicle: saline with Tween-80
[8] = dose: 50.0 mg/kg/injection, schedule: Q01DX009 (ip), vehicle: saline with Tween-80
[9] = dose: 12.5 mg/kg/injection, schedule: Q01DX009 (ip), vehicle: Klucel (hydroxypropylcellulose) (HPC)
[10] = dose: 100.0 mg/kg/injection, schedule: Q04DX003 (ip), vehicle: Klucel (hydroxypropylcellulose) (HPC)

With `CC1OC(OC2CCCc3c(O)c4c(c(O)c32)C(=O)c2ccccc2C4=O)CC(N)C1O` (configuration not stated) the T/C (dose: 0.25 mg/kg/injection, schedule: Q01DX009 (ip), vehicle: water) was 110 % of control, the T/C (dose: 0.5 mg/kg/injection, schedule: Q01DX009 (ip), vehicle: water) was 105 % of control and the T/C (dose: 1.0 mg/kg/injection, schedule: Q01DX009 (ip), vehicle: water) was 98 % of control. For the same compound, the T/C (dose: 2.0 mg/kg/injection, schedule: Q01DX009 (ip), vehicle: water) was 110 % of control and 115 % of control, the T/C (dose: 4.0 mg/kg/injection, schedule: Q01DX009 (ip), vehicle: water) was 108 % of control and 113 % of control and the T/C (dose: 8.0 mg/kg/injection, schedule: Q01DX009 (ip), vehicle: water) was 108 % of control. For the same compound, the T/C (dose: 16.0 mg/kg/injection, schedule: Q01DX009 (ip), vehicle: water) was 105 % of control.

In the case of `Clc1ccc(C2c3ccccc3C[n+]3ccccc32)cc1` (configuration not stated), the T/C (dose: 8.75 mg/kg/injection, schedule: Q01DX009 (ip), vehicle: Klucel (hydroxypropylcellulose) (HPC)) is reported as 113 % of control, the T/C (dose: 12.5 mg/kg/injection, schedule: Q04DX003 (ip), vehicle: Klucel (hydroxypropylcellulose) (HPC)) is reported as 95 % of control and the T/C (dose: 17.5 mg/kg/injection, schedule: Q01DX009 (ip), vehicle: Klucel (hydroxypropylcellulose) (HPC)) is reported as 109 % of control. For the same compound, the T/C [1] was 91 % of control.

In the case of `COC(=O)[CH](C[N+](=O)[O-])[Hg][Cl]` (configuration not stated), the T/C (dose: 1.56 mg/kg/injection, schedule: Q01DX009 (ip), vehicle: Klucel (hydroxypropylcellulose) (HPC)) is reported as 104 % of control, the T/C (dose: 2.32 mg/kg/injection, schedule: Q04DX003 (ip), vehicle: Klucel (hydroxypropylcellulose) (HPC)) is reported as 104 % of control and the T/C [2] is reported as 113 % of control. The T/C (dose: 4.65 mg/kg/injection, schedule: Q04DX003 (ip), vehicle: Klucel (hydroxypropylcellulose) (HPC)) was 113 % of control.

`O=S(=O)(F)c1ccc2nc(-c3cccc(Sc4ccccc4)c3)cc(Cl)c2c1` was tested, and the T/C [3] was 90 % of control, the T/C [4] was 100 % of control and the T/C [5] was 100 % of control.

`C=C1C(=O)O[C@H]2[C@H]1[C@H](OC(=O)/C(C)=C\C)CC(=C)[C@@H]1[C@H](O)[C@H]3O[C@@]3(C)[C@@]12O` was tested, and the T/C (dose: 5.0 mg/kg/injection, schedule: Q01DX010 (ip), vehicle: carboxymethylcellulose (CMC)) was 104 % of control, the T/C (dose: 10.0 mg/kg/injection, schedule: Q01DX010 (ip), vehicle: carboxymethylcellulose (CMC)) was 104 % of control and the T/C (dose: 20.0 mg/kg/injection, schedule: Q01DX010 (ip), vehicle: carboxymethylcellulose (CMC)) was 113 % of control.

With `O=C1C2CCCCC1C(N1CCCC1)CC2` (configuration not stated) the T/C (dose: 100.0 mg/kg/injection, schedule: Q04DX003 (sc), vehicle: olive oil, sesame oil, peanut oil) was 100 % of control, the T/C (dose: 200.0 mg/kg/injection, schedule: Q04DX003 (sc), vehicle: olive oil, sesame oil, peanut oil) was 86 % of control and the T/C (dose: 400.0 mg/kg/injection, schedule: Q04DX003 (sc), vehicle: olive oil, sesame oil, peanut oil) was 100 % of control.

For `Nc1nc(=O)n(C2OC(CO)C(O)C2O)c2nc(I)[nH]c12` (configuration not stated), the T/C (dose: 12.5 mg/kg/injection, schedule: Q04DX003 (ip), vehicle: saline) was 97 % of control, the T/C (dose: 25.0 mg/kg/injection, schedule: Q04DX003 (ip), vehicle: saline) was 97 % of control and the T/C (dose: 50.0 mg/kg/injection, schedule: Q04DX003 (ip), vehicle: saline) was 105 % of control. The T/C (dose: 100.0 mg/kg/injection, schedule: Q04DX003 (ip), vehicle: saline) was 108 % of control and the T/C (dose: 200.0 mg/kg/injection, schedule: Q04DX003 (ip), vehicle: saline) was 111 % of control.

`CC(=O)Oc1cc2c[n+](C)c3c4cc(OC(C)=O)c(OC(C)=O)cc4ccc3c2cc1OC(C)=O` was tested, and the T/C (dose: 20.0 mg/kg/injection, schedule: Q01DX009 (ip), vehicle: saline) was 95 % of control, the T/C (dose: 40.0 mg/kg/injection, schedule: Q01DX009 (ip), vehicle: saline) was 104 % of control and the T/C (dose: 80.0 mg/kg/injection, schedule: Q01DX009 (ip), vehicle: saline) was 109 % of control. The T/C (dose: 120.0 mg/kg/injection, schedule: Q01DX009 (ip), vehicle: saline) was 118 % of control.

In the case of `O=C(/C=C/c1ccc(Br)cc1)c1ccc(Cl)cc1`, the T/C [6] is reported as 100 % of control, the T/C [3] is reported as 100 % of control and the T/C [7] is reported as 110 % of control. For the same compound, the T/C [4] was 100 % of control, the T/C (dose: 400.0 mg/kg/injection, schedule: Q01DX009 (ip), vehicle: saline with Tween-80) was 100 % of control and the T/C [5] was 90 % of control.

In the case of `O=[N+]([O-])c1ccc(/C=C2\c3ccccc3-c3nc4ccccc4nc32)cc1`, the T/C (dose: 150.0 mg/kg/injection, schedule: Q01DX001 (ip), vehicle: other) is reported as 118 % of control and the T/C (dose: 300.0 mg/kg/injection, schedule: Q01DX001 (ip), vehicle: other) is reported as 86 % of control.

In the case of `O=C(N=Nc1c(O)[nH]c2ccccc12)C(=O)Nc1cccc(C(F)(F)F)c1`, the T/C [8] is reported as 87 % of control.

For `CCOC(=O)C(C(=O)OCC)=C(C#N)c1c[nH]c2ccccc12`, the T/C [9] was 90 % of control, the T/C (dose: 25.0 mg/kg/injection, schedule: Q01DX009 (ip), vehicle: Klucel (hydroxypropylcellulose) (HPC)) was 104 % of control and the T/C (dose: 50.0 mg/kg/injection, schedule: Q01DX009 (ip), vehicle: Klucel (hydroxypropylcellulose) (HPC)) was 104 % of control. The T/C [10] was 95 % of control, the T/C (dose: 200.0 mg/kg/injection, schedule: Q04DX003 (ip), vehicle: Klucel (hydroxypropylcellulose) (HPC)) was 100 % of control and the T/C (dose: 400.0 mg/kg/injection, schedule: Q04DX003 (ip), vehicle: Klucel (hydroxypropylcellulose) (HPC)) was 109 % of control.

For `CC1CC2CCCC(O)=C2C(=O)O1` (configuration not stated), the T/C (dose: 37.0 mg/kg/injection, schedule: Q01DX010 (ip), vehicle: saline) was 95 % of control, the T/C (dose: 75.0 mg/kg/injection, schedule: Q01DX010 (ip), vehicle: saline) was 100 % of control and the T/C (dose: 150.0 mg/kg/injection, schedule: Q01DX010 (ip), vehicle: saline) was 105 % of control.

`CN(C)CCN1C(=O)c2cccc3cc([N+](=O)[O-])cc(c23)C1=O` was tested, and the T/C (dose: 3.13 mg/kg/injection, schedule: Q01DX009 (ip), vehicle: saline with Tween-80) was 160 % of control and the T/C (dose: 6.25 mg/kg/injection, schedule: Q01DX009 (ip), vehicle: saline with Tween-80) was 215 % of control.

For `CCn1cnc2c(=S)nc(N)[nH]c21`, the T/C [2] was 100 % of control, the T/C (dose: 6.25 mg/kg/injection, schedule: Q01DX009 (ip), vehicle: Klucel (hydroxypropylcellulose) (HPC)) was 118 % of control and the T/C [9] was 90 % of control. For the same compound, the T/C [1] was 100 % of control, the T/C (dose: 50.0 mg/kg/injection, schedule: Q04DX003 (ip), vehicle: Klucel (hydroxypropylcellulose) (HPC)) was 100 % of control and the T/C [10] was 104 % of control.

In the case of `CC(C)COP(=O)(O)OCC(C)C.[Al]`, the T/C [8] is reported as 92 % of control, the T/C [6] is reported as 94 % of control and the T/C [7] is reported as 94 % of control.

In the case of `CCCCCCCCCCCCCCCC(=O)N(CCC#N)CCC#N`, the T/C (dose: 66.0 mg/kg/injection, schedule: Q01DX009 (ip), vehicle: saline with Tween-80) is reported as 91 % of control, the T/C [6] is reported as 91 % of control and the T/C (dose: 150.0 mg/kg/injection, schedule: Q01DX009 (ip), vehicle: saline with Tween-80) is reported as 108 % of control.

In the case of `NCCS(=O)(=O)O`, the T/C (dose: 12.5 mg/kg/injection, schedule: Q01DX009 (ip), vehicle: saline) is reported as 90 % of control and 100 % of control, the T/C (dose: 17.5 mg/kg/injection, schedule: Q01DX009 (ip), vehicle: saline) is reported as 123 % of control and the T/C (dose: 25.0 mg/kg/injection, schedule: Q01DX009 (ip), vehicle: saline) is reported as 110 % of control. The T/C (dose: 35.0 mg/kg/injection, schedule: Q01DX009 (ip), vehicle: saline) was 123 % of control, the T/C (dose: 50.0 mg/kg/injection, schedule: Q01DX009 (ip), vehicle: saline) was 100 % of control (2×) and 113 % of control and the T/C (dose: 70.0 mg/kg/injection, schedule: Q01DX009 (ip), vehicle: saline) was 107 % of control. For the same compound, the T/C (dose: 100.0 mg/kg/injection, schedule: Q01DX009 (ip), vehicle: saline) was 86 % of control and 94 % of control, the T/C (dose: 200.0 mg/kg/injection, schedule: Q01DX009 (ip), vehicle: saline) was 100 % of control and the T/C (dose: 400.0 mg/kg/injection, schedule: Q01DX009 (ip), vehicle: saline) was 95 % of control and 105 % of control.

`COC(=S)Nc1ccc2c(c1)nc(-c1ccccc1)c1cc(NC(=S)OC)ccc12` was tested, and the T/C (dose: 100.0 mg/kg/injection, schedule: Q04DX002 (ip), vehicle: saline with Tween-80) was 101 % of control, the T/C (dose: 200.0 mg/kg/injection, schedule: Q04DX002 (ip), vehicle: saline with Tween-80) was 101 % of control and the T/C (dose: 400.0 mg/kg/injection, schedule: Q04DX002 (ip), vehicle: saline with Tween-80) was 90 % of control.
